Where “and” joins values, the source holds several entries; their conditions need not be identical. Identical values can stand only once.
Tests used:
[1] = Cytotoxicity assay; format: cell-based; conditions: human, Gal-PC-3 cells
[2] = Cytotoxicity assay; format: cell-based; conditions: human, MT-4 cells
[3] = Cytotoxicity assay; format: cell-based; conditions: human, primary CD4+ T-lymphocytes
[4] = Cytotoxicity assay; format: cell-based; conditions: human, quiescent PBMCs
[5] = Cytotoxicity assay; format: cell-based; conditions: human, Huh-7 cells
[6] = Cytotoxicity assay; format: cell-based; conditions: human, primary human hepatocytes
[7] = Cytotoxicity assay; format: cell-based; conditions: human, MRC-5 cells
[8] = Cytotoxicity assay; format: cell-based; conditions: human, Gal-HepG2 cells
[9] = Cytotoxicity assay; format: cell-based, human; conditions: human, stimulated PBMCs
[10] = Cytotoxicity assay; format: cell-based; conditions: human, monocyte-derived macrophages
[11] = system: HIV-1 recombinant strains resistant to NRTIs, NNRTIs, INSTIs, PIs or MIs; format: cell-based

COc1ccc(C[C@H](N)C(=O)N[C@H]2[C@@H](O)[C@H](n3cnc4c(N(C)C)ncnc43)O[C@@H]2CO)cc1 [Puromycin, reference compound]
CC50 [1]: 400 nM | CC50 [2]: 200 ± 100 nM | CC50 [3]: 200 ± 100 nM | CC50 [4]: 600 ± 1500 nM | CC50 [5]: 500 nM | CC50 [6]: 1600 ± 600 nM | CC50 [7]: 300 nM | CC50 [8]: 1000 ± 1700 nM | CC50 [9]: 200 ± 100 nM | CC50 [10]: 4500 ± 2800 nM

COc1cc2c(cc1Cc1cccc(Cl)c1F)c(=O)c(C(=O)O)cn2[C@H](CO)C(C)C [EVG, elvitegravir, reference compound]
Fold resistance [11]: >53.8 (3) and >52.9 (3)

C=C(C)[C@@H]1CC[C@]2(C(=O)O)CC[C@]3(C)[C@H](CC[C@@H]4[C@@]5(C)CC[C@H](OC(=O)CC(C)(C)C(=O)O)C(C)(C)[C@@H]5CC[C@]43C)[C@@H]12 [BVM, bevirimat, reference compound]
Fold resistance [11]: >67.5 (6) and >67.5 (7)

O=C1Nc2ccc(Cl)cc2[C@@](C#CC2CC2)(C(F)(F)F)O1 [EFV, efavirenz, reference compound]
Fold resistance [11]: >22.5 (3)
